15 compounds from article PMC5421785, “Citrullination only infrequently impacts peptide binding to HLA class II MHC” (PLoS ONE, 2017) can be followed below.

The structures appear in SMILES notation. Like-named read-outs stand apart in the source and are kept apart here. Square brackets hold non-standard residues; d marks the D form. Peptide text beside a SMILES is read from it. Cit = NC(=O)NCCC[C@H](N)C(=O)O

The target of experiment [1] is T1, HLA-DRB1*04:01 (Homo sapiens, UniProt P01903+P01911, A100K/A169T/F76Y/I96L/K127E/L162R/M171V/N62H/P40V/Q125Y/R42H/S133A/S149N/S66Y/V115G/V209L/W38E).
T1 construct: EBV transformed homozygous cell lines were used as sources of MHC molecules; endogenous in cells; host or cells: EBV transformed homozygous cell lines
Briefly: HLA class II peptide binding, inhibition of radiolabeled peptide binding to purified MHC. To be noted: for IC50: read-out: DRB1*04:01 binding capacity, Cit peptide (IC50 nM); for DRB1*04:01 binding capacity, WT/cit ratio: ratio of WT IC50 to Cit IC50, >1 = citrullination increases binding.

The target in experiment [2] is T2, HLA-DRB1*01:01 (Homo sapiens, UniProt P01903+P01911, A100R/D57E/F55L/F60I/F76Y/I96L/L162R/M171V/P40L/Q125E/R42F/V115G/Y59C).
T2 construct: EBV transformed homozygous cell lines were used as sources of MHC molecules; endogenous in cells; host or cells: EBV transformed homozygous cell lines
Described as above. To be noted: for IC50: read-out: DRB1*01:01 binding capacity, Cit peptide (IC50 nM); for DRB1*01:01 binding capacity, WT/cit ratio: ratio of WT IC50 to Cit IC50, >1 = citrullination increases binding.

Where [3] appears, read: citrullinated 15-mer (X), purified MHC, inhibition of radiolabeled peptide binding, dash = IC50 >40,000 nM.
Setting [4] is: citrullinated 15-mer peptide (X = citrulline), purified HLA-DRB1*04:01.
[5] abbreviates: citrullinated 15-mer peptide (X = citrulline), purified HLA-DRB1*01:01.

`CC(C)C[C@H](NC(=O)[C@H](CCC(=O)O)NC(=O)[C@H](CCC(N)=O)NC(=O)[C@H](CC(C)C)NC(=O)[C@H](CCC(=O)O)NC(=O)[C@@H](NC(=O)[C@H](CCCCN)NC(=O)[C@H](CCC(=O)O)NC(=O)[C@H](CC(N)=O)NC(=O)[C@@H](NC(=O)[C@H](CCCNC(N)=O)NC(=O)[C@@H](NC(=O)[C@H](CC(N)=O)NC(=O)[C@H](CCCCN)NC(=O)[C@@H](N)Cc1ccccc1)[C@@H](C)O)[C@@H](C)O)C(C)C)C(=O)O` [FKNTXTNEKVELQEL] (H-FKNT[Cit]TNEKVELQEL-OH): the values for the IC50 in experiment [1] (setting [3]) and in experiment [2] (setting [3]) were 1140 nM and 9330 nM, respectively.

As for `CC(C)C[C@H](NC(=O)[C@H](CC(=O)O)NC(=O)[C@H](CC(C)C)NC(=O)[C@H](CCCNC(N)=O)NC(=O)[C@H](C)NC(=O)[C@H](CC(C)C)NC(=O)[C@H](CO)NC(=O)[C@H](C)NC(=O)[C@H](CC(N)=O)NC(=O)[C@H](CC(=O)O)NC(=O)[C@@H](NC(=O)[C@H](CC(=O)O)NC(=O)[C@H](CCC(N)=O)NC(=O)[C@H](CCCNC(=N)N)NC(=O)[C@@H](N)Cc1ccccc1)C(C)C)C(=O)O` [FRQDVDNASLAXLDL] (H-FRQDVDNASLA[Cit]LDL-OH), the IC50 in experiment [1] (setting [3]) is 279 nM; in experiment [2] (setting [3]), 3940 nM.

`CC[C@H](C)[C@H](NC(=O)[C@H](C)NC(=O)[C@H](CC(=O)O)NC(=O)[C@H](C)NC(=O)[C@H](CC(C)C)NC(=O)[C@H](CO)NC(=O)[C@@H](N)Cc1ccccc1)C(=O)N[C@@H](CC(N)=O)C(=O)N[C@H](C(=O)N[C@@H](CCC(=O)O)C(=O)N[C@@H](Cc1ccccc1)C(=O)N[C@@H](CCCCN)C(=O)N[C@@H](CC(N)=O)C(=O)N[C@H](C(=O)N[C@@H](CCCNC(N)=O)C(=O)O)[C@@H](C)O)[C@@H](C)O` [FSLADAINTEFKNTX] (H-FSLADAINTEFKNT[Cit]-OH): the IC50 in experiment [1] (setting [3]) worked out at 22600 nM; in experiment [2] (setting [3]) it was 41 nM.

For the compound `CC(C)C[C@H](NC(=O)[C@H](CC(=O)O)NC(=O)[C@H](CC(C)C)NC(=O)[C@H](CCCNC(=N)N)NC(=O)[C@H](C)NC(=O)[C@H](CC(C)C)NC(=O)[C@H](CO)NC(=O)[C@H](C)NC(=O)[C@H](CC(N)=O)NC(=O)[C@H](CC(=O)O)NC(=O)[C@@H](NC(=O)[C@H](CC(=O)O)NC(=O)[C@H](CCC(N)=O)NC(=O)[C@H](CCCNC(N)=O)NC(=O)[C@@H](N)Cc1ccccc1)C(C)C)C(=O)O` [FXQDVDNASLARLDL] (H-F[Cit]QDVDNASLARLDL-OH), the half-inhibitory concentration (IC50) was determined as 280 nM in experiment [1] (setting [3]) and 7990 nM in experiment [2] (setting [3]).

Take `CC(C)[C@H](NC(=O)CNC(=O)[C@H](C)NC(=O)[C@H](C)NC(=O)CNC(=O)[C@H](CC(=O)O)NC(=O)[C@H](CCCNC(N)=O)NC(=O)CNC(=O)[C@@H]1CCCN1C(=O)[C@@H]1CCCN1C(=O)CNC(=O)[C@H](CC(=O)O)NC(=O)[C@H](C)NC(=O)CN)C(=O)N[C@@H](CCCCN)C(=O)O` [GADGPPGXDGAAGVK] (H-GADGPPG[Cit]DGAAGVK-OH; N-terminus and C-terminus assumed): the half-maximal inhibitory concentration (IC50) in experiment [1] (setting [4]) and in experiment [2] (setting [5]) was above 40000 nM each time. Moreover, the “DRB1*04:01 binding capacity, WT/cit ratio” value in experiment [1] is recorded as 1.0. For the same compound, the “DRB1*01:01 binding capacity, WT/cit ratio” value in experiment [2] was 1.0.

For `CC(C)C[C@H](NC(=O)CNC(=O)[C@H](CCC(N)=O)NC(=O)[C@@H]1CCCN1C(=O)CNC(=O)[C@@H]1CCCN1C(=O)[C@@H]1CCCN1C(=O)CNC(=O)[C@H](CCC(=O)O)NC(=O)[C@H](C)NC(=O)CN)C(=O)N[C@@H](C)C(=O)NCC(=O)N[C@@H](CCC(N)=O)C(=O)N[C@@H](CCCNC(N)=O)C(=O)O` [GAEGPPGPQGLAGQX] (H-GAEGPPGPQGLAGQ[Cit]-OH; N-terminus and C-terminus assumed), the IC50 in experiment [1] (setting [4]) and in experiment [2] (setting [5]) was above 40000 nM throughout. The “DRB1*04:01 binding capacity, WT/cit ratio” value in experiment [1] was 1.0. For the same compound, the “DRB1*01:01 binding capacity, WT/cit ratio” value in experiment [2] stood at 1.0.

For `CC(C)C[C@H](NC(=O)CNC(=O)[C@H](CCC(N)=O)NC(=O)[C@H](C)NC(=O)CN)C(=O)N[C@@H](CCC(N)=O)C(=O)NCC(=O)N1CCC[C@H]1C(=O)N[C@@H](CCCNC(N)=O)C(=O)NCC(=O)N[C@@H](CC(C)C)C(=O)N1CCC[C@H]1C(=O)NCC(=O)N[C@H](C(=O)N1CCC[C@H]1C(=O)O)[C@@H](C)O` [GAQGLQGPXGLPGTP] (H-GAQGLQGP[Cit]GLPGTP-OH), the values for the IC50 in experiment [1] (setting [4]) and in experiment [2] (setting [5]) were above 40000 nM and 578 nM, respectively.

In the case of `CSCC[C@H](NC(=O)[C@@H]1CCCN1C(=O)CNC(=O)[C@H](CCC(N)=O)NC(=O)[C@H](C)NC(=O)CNC(=O)[C@H](C)NC(=O)[C@H](CCC(=O)O)NC(=O)CNC(=O)[C@H](CCCNC(N)=O)NC(=O)[C@H](CC(=O)O)NC(=O)CN)C(=O)NCC(=O)N1CCC[C@H]1C(=O)N[C@@H](CO)C(=O)O` [GDXGEAGAQGPMGPS] (H-GD[Cit]GEAGAQGPMGPS-OH; N-terminus and C-terminus assumed), the IC50 in experiment [1] (setting [4]) and in experiment [2] (setting [5]) was above 40000 nM throughout. Moreover, the “DRB1*04:01 binding capacity, WT/cit ratio” value in experiment [1] came to 1.0. Also, the “DRB1*01:01 binding capacity, WT/cit ratio” value in experiment [2] was 0.2.

With `CC[C@H](C)[C@H](NC(=O)[C@H](CCCNC(N)=O)NC(=O)[C@H](CO)NC(=O)[C@H](CCC(=O)O)NC(=O)[C@H](CCC(=O)O)NC(=O)CN)C(=O)N[C@@H](CO)C(=O)N[C@@H](CC(C)C)C(=O)N1CCC[C@H]1C(=O)N[C@@H](CC(C)C)C(=O)N1CCC[C@H]1C(=O)N[C@@H](CC(N)=O)C(=O)N[C@@H](Cc1ccccc1)C(=O)N[C@@H](CO)C(=O)N[C@@H](CO)C(=O)O` [GEESXISLPLPNFSS] (H-GEES[Cit]ISLPLPNFSS-OH), the IC50 stood at 8410 nM in experiment [1] (setting [4]) and 646 nM in experiment [2] (setting [5]).

As for `C[C@H](NC(=O)[C@@H](NC(=O)CNC(=O)[C@@H]1CCCN1C(=O)CNC(=O)CN)[C@@H](C)O)C(=O)N[C@@H](CO)C(=O)N[C@@H](CCCNC(=N)N)C(=O)N1CCC[C@H]1C(=O)N[C@@H](CO)C(=O)N[C@@H](CO)C(=O)N[C@@H](CO)C(=O)N[C@@H](CCCNC(N)=O)C(=O)N[C@@H](CO)C(=O)N[C@@H](Cc1ccc(O)cc1)C(=O)O` [GGPGTASRPSSSXSY] (H-GGPGTASRPSSS[Cit]SY-OH), the IC50 was above 40000 nM in experiment [1] (setting [3]) and 13800 nM in experiment [2] (setting [3]).

For the compound `C[C@H](NC(=O)[C@@H](NC(=O)CNC(=O)[C@@H]1CCCN1C(=O)CNC(=O)CN)[C@@H](C)O)C(=O)N[C@@H](CO)C(=O)N[C@@H](CCCNC(N)=O)C(=O)N1CCC[C@H]1C(=O)N[C@@H](CO)C(=O)N[C@@H](CO)C(=O)N[C@@H](CO)C(=O)N[C@@H](CCCNC(=N)N)C(=O)N[C@@H](CO)C(=O)N[C@@H](Cc1ccc(O)cc1)C(=O)O` [GGPGTASXPSSSRSY] (H-GGPGTAS[Cit]PSSSRSY-OH), the results for the IC50 in experiment [1] (setting [3]) and in experiment [2] (setting [3]) were above 40000 nM and 10400 nM, respectively.

`CC(C)C[C@H](NC(=O)CNC(=O)[C@@H](NC(=O)[C@H](Cc1ccccc1)NC(=O)CNC(=O)[C@H](CCCNC(N)=O)NC(=O)[C@H](Cc1c[nH]cn1)NC(=O)CN)[C@@H](C)O)C(=O)N[C@@H](CCC(N)=O)C(=O)NCC(=O)N[C@@H](CC(C)C)C(=O)N1CCC[C@H]1C(=O)NCC(=O)N1CCC[C@H]1C(=O)N1CCC[C@H]1C(=O)O` [GHXGFTGLQGLPGPP] (H-GH[Cit]GFTGLQGLPGPP-OH): the results for the concentration for half-maximal inhibition (IC50) in experiment [1] (setting [4]) and in experiment [2] (setting [5]) were 2340 nM and 0.65 nM, respectively.

As for `CC[C@H](C)[C@H](NC(=O)CN)C(=O)N[C@@H](C)C(=O)NCC(=O)N[C@@H](C)C(=O)N1CCC[C@H]1C(=O)NCC(=O)N[C@@H](Cc1ccccc1)C(=O)N1CCC[C@H]1C(=O)NCC(=O)N1CCC[C@H]1C(=O)N[C@@H](CCCNC(N)=O)C(=O)NCC(=O)N1CCC[C@H]1C(=O)N1CCC[C@H]1C(=O)O` [GIAGAPGFPGPXGPP] (H-GIAGAPGFPGP[Cit]GPP-OH), the IC50 in experiment [1] (setting [4]) is above 40000 nM; in experiment [2] (setting [5]), 565 nM.

Turning to `CC[C@H](C)[C@H](NC(=O)CN)C(=O)N[C@H](C(=O)NCC(=O)N[C@@H](CC(C)C)C(=O)N1CCC[C@H]1C(=O)NCC(=O)N[C@@H](CCC(N)=O)C(=O)N[C@@H](CCCNC(=N)N)C(=O)NCC(=O)N[C@@H](CCC(=O)O)C(=O)N[C@@H](CCCNC(N)=O)C(=O)NCC(=O)N[C@@H](Cc1ccccc1)C(=O)N1CCC[C@H]1C(=O)O)C(C)C` [GIVGLPGQRGEXGFP] (H-GIVGLPGQRGE[Cit]GFP-OH), the IC50 worked out at 5800 nM in experiment [1] (setting [4]) and 6.7 nM in experiment [2] (setting [5]).

Consider `CC[C@H](C)[C@H](NC(=O)CN)C(=O)N[C@H](C(=O)NCC(=O)N[C@@H](CC(C)C)C(=O)N1CCC[C@H]1C(=O)NCC(=O)N[C@@H](CCC(N)=O)C(=O)N[C@@H](CCCNC(N)=O)C(=O)NCC(=O)N[C@@H](CCC(=O)O)C(=O)N[C@@H](CCCNC(=N)N)C(=O)NCC(=O)N[C@@H](Cc1ccccc1)C(=O)N1CCC[C@H]1C(=O)O)C(C)C` [GIVGLPGQXGERGFP] (H-GIVGLPGQ[Cit]GERGFP-OH), for which the half-maximal inhibitory concentration (IC50) in experiment [1] (setting [4]) is 2050 nM; in experiment [2] (setting [5]), 3.6 nM.

In general, IC50 refers to the concentration that inhibits the measured activity by half.
